Results from patent US20160279269A1, “METHOD AND REAGENT FOR PREPARING A DIAGNOSTIC COMPOSITION” (GE HEALTHCARE AS, priority 2013, published 2016).

Assay: Measured osmolality of ioforminol injection solution, including on dilution and after autoclaving
Type: physicochemical
Protocol: Isotonicity—A solution is isotonic with human blood plasma if no net water migration takes place over the blood cell membranes after mixing the solution with human blood. This means that the measured osmolality of the solution is equal to that of human blood plasma (approx. 290 mOsmol/kg water). This is the goal for any parenteral drug formulation, being more important if injection volumes are relatively large (typically >10 ml) and if injection rate is fast.
Ioforminol 320 mg I/ml injection contains […]. With a molar weight of 1522,13 Dalton, this would be 420.3 mM. This concentrated solution contains 699 g water per litre. Density is 1.357 kg/litre, thus the weight of one litre Ioforminol 320 mg I/ml injection is 1.357 kg. Water is therefore only about half of the weight. Theoretical estimation of osmolality would be 601.5 mOsmol/kg water given 420.3 mM ioforminol, no dissociation under dissolution and 699 g water as solvent.
Knowing that blood plasma osmolality is approx. 290 mOsmol/kg water, such a solution would be hypertonic by a factor 2 even without other components/solutes. Yet measured osmolality of the complete formulation of ioforminol 320 mg I/ml was around 290 mOsmol/kg water. When one subtracts the contribution to osmolality of the other components in the formulation (Tris, EDTA, NaCl and CaCl2), the net contribution of ioforminol was around 129 mOsmol/kg, not around 600 mOsmol/kg. This is approximately 22% of the expected theoretical osmolality if every ioforminol molecule would act as one hydrated particle.
This can be attributed to the very high concentration of ioforminol in the 320 mg I/ml solution. […] However, the percentage only increases to approximately 36% when the concentrated ioforminol composition was diluted more than fourfold. The result of this phenomenon is the linear correlation between ioforminol concentration, salt concentration and osmolality in the interval 70-330 mg I/ml Ioforminol.

net contribution of ioforminol to osmolality (320 mg I/ml, contribution of Tris, EDTA, NaCl and CaCl2 subtracted): around 129 mOsmol/kg | percentage of the expected theoretical osmolality (320 mg I/ml, theoretical = every ioforminol molecule acts as one hydrated particle): approximately 22% | percentage contribution to osmolality after autoclaving (121° C. for approximately 15 minutes): does not change | percentage of the expected theoretical osmolality (after more than fourfold dilution from 320 to 70 mg I/ml): approximately 36% | osmolality compared to theoretical value (aqueous solution, theoretical = one molecule acts as one hydrated particle): lower
SMILES: O=CN(CC(O)CN(C=O)c1c(I)c(C(=O)NCC(O)CO)c(I)c(C(=O)NCC(O)CO)c1I)c1c(I)c(C(=O)NCC(O)CO)c(I)c(C(=O)NCC(O)CO)c1I (centres unmarked) [ioforminol, 5-[formyl-[3-[formyl-[3,5-bis(2,3-dihydroxypropylcarbamoyl)-2,4,6-triiodophenyl]amino]-2-hydroxypropyl]amino]-N,N′-bis(2,3-dihydroxypropyl)-2,4,6-triiodobenzene-1,3-dicarboxamide]
